{"source": "paper PMC6767234", "about": "“Effects of the Ethanol Extract of Dipterocarpus alatus Leaf on the Unpredictable Chronic Mild Stress-Induced Depression in ICR Mice and Its Possible Mechanism of Action” (Molecules, 2019)", "key": {"mice": {"test_system": "mice", "conditions": "cited from earlier work"}, "ICR mice": {"test_system": "ICR mice", "set-up": "method as in PMID 31394019", "conditions": "oral, 5 mg/kg for 7 days, vs vehicle-administered control group; cited from earlier work"}, "UCMS": {"test_system": "UCMS", "set-up": "method as in PMID 28732760", "conditions": "cited from earlier work"}, "CREB mRNA": {"test_system": "CREB mRNA", "experiment": "QPCR of CREB mRNA in frontal cortex and hippocampus of UCMS mice", "type": "in vivo, ICR mice", "conditions": "LE 100 and 500 mg/kg p.o., IMP 20 mg/kg i.p.", "method": "(§1) UCMS procedures were used to induce the depressive-like behaviors in mice as previously described by Mizuki et al., with minor modification. Briefly, in week 0, the animals were first trained to consume a 2% sucrose solution for a 48-h period in their home cages with no food or water. After this training, the animals were deprived of water and food for 18 h, and then sucrose solution was given for 1 h per day for 5 consecutive days in order to group the mice and determine the baseline sucrose consumption. The animals were randomly divided into 5 groups: a non-stressed control group and 4 other groups subjected to UCMS for 5 weeks. […]\n(§2) Mouse serum/glucocorticoid-regulated kinase 1 (SGK1), cyclic AMP response element binding protein (CREB), brain-derived neurotrophic factor (BDNF), mRNAs expression in hippocampus and frontal cortex were quantified by real time PCR. […] Fold difference relative expressions were calculated."}, "BDNF mRNA": {"test_system": "BDNF mRNA", "experiment": "QPCR of BDNF mRNA in frontal cortex and hippocampus of UCMS mice", "type": "in vivo, ICR mice", "conditions": "LE 100 and 500 mg/kg p.o., IMP 20 mg/kg i.p.", "method": "as §1, §2"}, "UCMS mice [1]": {"test_system": "UCMS mice", "experiment": "Forced swimming test (FST) in UCMS mice", "type": "in vivo, ICR mice", "conditions": "LE 100 and 500 mg/kg p.o. (dose-dependent), IMP 20 mg/kg i.p., vs vehicle-treated UCMS group", "method": "as §1, with “weeks. The UCMS procedures consisted of a variety of unpredictable mild stressors, including two periods of cage tilting at 45° (12 h), two periods of restricted access to food (5 micropellets, 1 h), two periods of exposure to an empty bottle (3 h), one 21 h-period of a wet cage (200 mL of water in 100 g of sawdust bedding), two periods of light exposure (36 h), two periods of intermittent sound (a cat singing sound) (3 and 5 h), two periods of paired caging (2 h), and food and water deprivation for 18 h before the measurement of 2% sucrose solution consumption.” for “weeks.”\nForced swimming test (FST) is one of the most commonly used animal models for assessing antidepressant-like behavior. […] The immobility time was recorded during 5 min."}, "UCMS mice [2]": {"test_system": "UCMS mice", "experiment": "Locomotor activity in the Y-maze task in UCMS mice", "type": "in vivo, ICR mice", "conditions": "LE 100 and 500 mg/kg p.o., IMP 20 mg/kg i.p.", "method": "as §1\nIn order to exclude false positive results from drug-induced hyperlocomotion in hopeless behavioral tests, locomotor activity was determined by evaluation of mice movement. […] One hour after drug administration, the mice were individually placed on one arm, and the total arm entries were recorded manually over 8 min-period for measuring the locomotion activity."}, "SGK1 mRNA": {"test_system": "SGK1 mRNA", "experiment": "QPCR of SGK1 mRNA in frontal cortex and hippocampus of UCMS mice", "type": "in vivo, ICR mice", "conditions": "LE 100 and 500 mg/kg p.o. (dose-dependent), IMP 20 mg/kg i.p.", "method": "as §1, §2"}, "[3]": {"test_system": "serum corticosterone (CORT)", "experiment": "Serum corticosterone (CORT) ELISA in UCMS mice", "type": "in vivo, ICR mice", "conditions": "imipramine 20 mg/kg/day, LE 100–500 mg/kg/day for 3 weeks, vs vehicle-treated UCMS group", "method": "as §1\nAfter completing the behavioral analysis, blood was collected via cardiac puncture under anesthesia with pentobarbital sodium as anesthetic drug (Nembutal®: 60 mg/kg i.p.; Ceva Sante Animale, Libourne, France). […] The absorbance was immediately determined at 450 nm."}, "UCMS mice [4]": {"test_system": "UCMS mice", "experiment": "Sucrose preference test (anhedonia) in UCMS mice", "type": "in vivo, ICR mice", "conditions": "IMP 20 mg/kg i.p. daily, 5th week, vs vehicle-treated UCMS group", "method": "as §1, with “weeks. The UCMS procedures consisted of a variety of unpredictable mild stressors, including two periods of cage tilting at 45° (12 h), two periods of restricted access to food (5 micropellets, 1 h), two periods of exposure to an empty bottle (3 h), one 21 h-period of a wet cage (200 mL of water in 100 g of sawdust bedding), two periods of light exposure (36 h), two periods of intermittent sound (a cat singing sound) (3 and 5 h), two periods of paired caging (2 h), and food and water deprivation for 18 h before the measurement of 2% sucrose solution consumption.” for “weeks.”\nThe sucrose preference test was used to assess the anhedonic-like behavior. […] The amounts of 2% (w/v) sucrose solution were recorded. […]"}, "UCMS mice [5]": {"test_system": "UCMS mice", "experiment": "Tail suspension test (TST) in UCMS mice", "type": "in vivo, ICR mice", "conditions": "LE 100 and 500 mg/kg p.o. (dose-dependent), IMP 20 mg/kg i.p., vs vehicle-treated UCMS group", "method": "as §1\nEach mouse was suspended upside down in the tail suspension test box, which leads to characteristic behavior immobility. […] Immobility duration was recorded for the last 4 min, during a 6-min observation period. […]"}, "recombinant human MAO-A": {"target": "T1, recombinant human MAO-A (Homo sapiens, UniProt P21397)", "T1 sequence (P21397 1-527)": "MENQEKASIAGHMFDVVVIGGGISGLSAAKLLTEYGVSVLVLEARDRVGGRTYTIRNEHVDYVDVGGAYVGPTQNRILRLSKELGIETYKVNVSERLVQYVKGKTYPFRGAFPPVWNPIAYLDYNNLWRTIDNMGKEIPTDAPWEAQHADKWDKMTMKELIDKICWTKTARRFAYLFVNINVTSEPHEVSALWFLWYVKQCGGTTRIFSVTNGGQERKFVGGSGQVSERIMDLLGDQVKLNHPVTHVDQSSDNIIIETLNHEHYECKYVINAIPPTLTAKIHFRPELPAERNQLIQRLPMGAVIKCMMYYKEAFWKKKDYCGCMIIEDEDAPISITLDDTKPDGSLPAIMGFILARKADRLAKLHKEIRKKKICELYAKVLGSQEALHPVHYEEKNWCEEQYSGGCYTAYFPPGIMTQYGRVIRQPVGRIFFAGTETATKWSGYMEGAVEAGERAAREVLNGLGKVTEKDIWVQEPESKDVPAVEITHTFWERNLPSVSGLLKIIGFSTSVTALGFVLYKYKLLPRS", "conditions": "read-out: Km for the oxidation of kynuramine by MAO-A; cited from earlier work"}, "recombinant human MAO-B": {"target": "T2, recombinant human MAO-B (Homo sapiens, UniProt P27338)", "T2 sequence (P27338 1-520)": "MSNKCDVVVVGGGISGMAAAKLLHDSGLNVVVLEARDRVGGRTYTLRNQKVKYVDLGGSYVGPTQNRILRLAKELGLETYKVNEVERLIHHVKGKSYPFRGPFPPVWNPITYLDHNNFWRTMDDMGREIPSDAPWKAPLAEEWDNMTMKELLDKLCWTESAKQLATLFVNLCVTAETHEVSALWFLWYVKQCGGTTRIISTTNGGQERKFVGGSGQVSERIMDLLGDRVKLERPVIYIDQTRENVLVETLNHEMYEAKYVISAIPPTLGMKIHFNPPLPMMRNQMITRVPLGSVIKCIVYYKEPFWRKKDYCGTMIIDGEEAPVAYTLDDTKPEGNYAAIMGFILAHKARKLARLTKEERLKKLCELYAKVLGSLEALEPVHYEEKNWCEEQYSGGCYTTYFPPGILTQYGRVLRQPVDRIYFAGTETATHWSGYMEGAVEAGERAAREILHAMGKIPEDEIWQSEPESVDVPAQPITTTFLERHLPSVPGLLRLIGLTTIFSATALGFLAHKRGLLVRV", "conditions": "read-out: Km for the oxidation of kynuramine by MAO-B; cited from earlier work"}}, "note": "Where a name gives a salt, the structure may show the parent alone.", "data": [{"smiles": "O=c1c(O)c(-c2ccc(O)cc2)oc2cc(O)cc(O)c12", "note": "[Kaemferol]", "values": [{"measurement": "immobility time in FST and TST", "setting": "mice; stress-induced mice compared with unstressed mice", "value": "reducing the immobility time"}]}, {"smiles": "COc1cc(/C=C/C(=O)O)ccc1O", "note": "[ferulic acid]", "values": [{"measurement": "immobility", "setting": "ICR mice", "value": "significantly reduced immobility"}]}, {"smiles": "O=c1cc(-c2ccc(O)c(O)c2)oc2cc(O)cc(O)c12", "note": "[luteolin]", "values": [{"measurement": "effect in FST and TST", "setting": "mice; oral administration, 50 mg/kg", "value": "antidepressant effects"}]}, {"smiles": "C[C@@H]1O[C@@H](OC[C@H]2O[C@@H](Oc3c(-c4ccc(O)c(O)c4)oc4cc(O)cc(O)c4c3=O)[C@H](O)[C@@H](O)[C@@H]2O)[C@H](O)[C@H](O)[C@H]1O", "note": "[Rutin, quercetin-3-rutinoside]", "values": [{"measurement": "UCMS-induced behavioral deficits", "setting": "UCMS", "value": "efficiently rescued the UCMS-induced behavioral deficits"}]}, {"smiles": "CN(C)CCCN1c2ccccc2CCc2ccccc21", "note": "[imipramine, imipramine hydrochloride]", "values": [{"measurement": "expression of CREB mRNA", "setting": "CREB mRNA", "value": "normalized the down-regulated expression"}, {"measurement": "expression of BDNF mRNA", "setting": "BDNF mRNA", "value": "normalized the down-regulated expression"}, {"measurement": "immobility time in FST", "setting": "UCMS mice [1]", "value": "significantly decreased the immobility time"}, {"measurement": "locomotor activity (number of arm entries, Y-maze)", "setting": "UCMS mice [2]", "value": "neither imipramine (IMP) nor the ethanol extract of D. alatus leaf improved the locomotor activity"}, {"measurement": "mRNA expression of SGK1", "setting": "SGK1 mRNA", "value": "markedly decreased"}, {"measurement": "UCMS-induced elevation in serum CORT levels", "setting": "[3]", "value": "significantly suppressed"}, {"measurement": "2% sucrose intake", "setting": "UCMS mice [4]", "value": "significant increase"}, {"measurement": "immobility time in TST", "setting": "UCMS mice [5]", "value": "significantly decreased the immobility time"}]}, {"smiles": "NCCC(=O)c1ccccc1N", "note": "[kynuramine]", "values": [{"measurement": "Km", "setting": "recombinant human MAO-A", "value": 16.1, "unit": "µM"}, {"measurement": "Km", "setting": "recombinant human MAO-B", "value": 22.7, "unit": "µM"}]}]}
